# Target: T1, DSA (Datura stramonium agglutinin) (Datura stramonium, UniProt A0A089ZWN7)
# T1 construct: gene dsa-b; four hevein domains and extensin-like domain
# T1 sequence (A0A089ZWN7 24-279): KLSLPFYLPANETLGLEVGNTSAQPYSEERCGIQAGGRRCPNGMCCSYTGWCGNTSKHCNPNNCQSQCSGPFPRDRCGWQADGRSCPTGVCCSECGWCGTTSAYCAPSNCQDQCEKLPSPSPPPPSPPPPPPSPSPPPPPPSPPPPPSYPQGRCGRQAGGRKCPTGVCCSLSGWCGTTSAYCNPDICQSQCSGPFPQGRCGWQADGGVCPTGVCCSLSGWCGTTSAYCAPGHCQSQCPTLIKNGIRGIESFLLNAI
# Set-up: Frontal affinity chromatography, pyridylaminated oligosaccharides on Sepharose-immobilized lectin; Kd = Bt/(V-V0)
# Conditions: binder
# Experimental: For systematic comparison of sugar-binding properties of the six chitin-binding lectins, FAC was carried out with a previously established procedure. Briefly, to determine the Kd values of each of the six chitin-binding lectins for 124 PA-oligosaccharides, each of the lectins was immobilized on activated Sepharose at several concentrations: one for concentration-dependent analysis to determine the effective ligand content Bt (expressed in nmol) of a standard column, from which Kd values for a panel of PA-oligosaccharides were determined according to a simplified basic equation of FAC, Kd = Bt/(V − V0). The other(s) are supplementary to cover a wide range of possible Kd values, which is in direct relation to the observed value of V − V0 (for more detail, see Materials and Methods). […] It is often useful to discuss lectin-oligosaccharide interactions in terms of an affinity constant, Ka (1/Kd), instead of Kd. […] This was applied in the cases of DSA (6.0 and 1.5 mg/mL), UDA (6.0, 3.0, 1.0, and 0.3 mg/mL), WGA (7.0, 2.0, and 0.5 mg/mL), and LEL (6.0 and 0.5 mg/mL).
row,Kd,SMILES
1,31 µM,"OC[C@@H](O)[C@@H](O[C@@H]1O[C@H](CO)[C@H](O)[C@H](O)[C@H]1O)[C@H](O)[C@@H](O)CNc1ccccn1 [compound 701, 701]"
2,87 µM,"CC(=O)N[C@@H](CNc1ccccn1)[C@@H](O)[C@H](O[C@@H]1O[C@H](CO)[C@H](O)[C@H](O)[C@H]1O)[C@H](O)CO [compound 901, 901]"

# Source: publication PMC5485984, “Sugar-Binding Profiles of Chitin-Binding Lectins from the Hevein Family: A Comprehensive Study” (International Journal of Molecular Sciences, 2017)
